34 compounds from patent US7598382B2, “Aryl substituted imidazoquinolines” (Coley Pharmaceutical Group, Inc., priority 2002, dated 2009) can be followed below.

SMILES strings stand for the structures. Structures can show the parent of a compound that is named as a salt.

`CCOCc1nc2c(N)nc3c(-c4cccc(CS(N)(=O)=O)c4)cccc3c2n1CC(C)(C)O` [Example 484, {3-[4-Amino-2-ethoxymethyl-1-(2-hydroxy-2-methylpropyl)-1H-imidazo[4,5-c]quinolin-6-yl]phenyl}methanesulfonamide]: the melting point (in general, the temperature, or range, at which the solid turns liquid) was 234 to 235 °C.
`CCCc1nc2c(N)nc3cc(CCc4ccc(OC)cc4)ccc3c2n1CC(C)C` (as salt: HCl) [Example 459, 7-[2-(4-Methoxyphenyl)ethyl]-1-(2-methylpropyl)-2-propyl-1H-imidazo[4,5-c]quinolin-4-amine]: the melting point was above 250 °C.
`COCCc1nc2c(N)nc3cc(-c4ccccc4)ccc3c2n1CC(C)(C)O` [Example 136, 1-[4-Amino-2-(2-methoxyethyl)-7-phenyl-1H-imidazo[4,5-c]quinolin-1-yl]-2-methylpropan-2-ol] gave a melting point of 226 to 227 °C.
`CCOCc1nc2c(N)nc3cc(-c4cccnc4)ccc3c2n1CC1CCN(C(=O)OC(C)(C)C)CC1` [Example 176, tert-Butyl 4-{[4-amino-2-ethoxymethyl-7-(pyridin-3-yl)-1H-imidazo[4,5-c]quinolin-1-yl]methyl}piperidine-1-carboxylate]: the melting point was 197 to 198 °C.
Consider `CCCc1nc2c(N)nc3cc(-c4cccnc4)ccc3c2n1CC1CCNCC1` (as salt: hydrochloride) [Example 410, 1-(Piperidin-4-ylmethyl)-2-propyl-7-(pyridin-3-yl)-1H-imidazo[4,5-c]quinolin-4-amine trihydrochloride], for which the melting point is above 250 °C.
`CCCc1nc2c(N)nc3cc(CCc4cccc(OC)c4)ccc3c2n1CC(C)C` [Example 458, 7-[2-(3-Methoxyphenyl)ethyl]-1-(2-methylpropyl)-2-propyl-1H-imidazo[4,5-c]quinolin-4-amine]: the melting point lay within 155 to 157 °C.
For `CCOCc1nc2c(N)nc3cc(-n4cccn4)ccc3c2n1CCCOC` [Example 472, 2-Ethloxymethyl-1-(3-methoxypropyl)-7-(pyrazol-1-yl)-1H-imidazo[4,5-c]quinolin-4-amine], the melting point fell in the range of 159 to 160 °C.
In turn, `CCOCc1nc2c(N)nc3cc(-c4cccnc4)ccc3c2n1C[C@H](O)CO` [Example 490, (S)-3-[4-Amino-2-ethoxymethyl-7-(pyridin-3-yl)-1H-imidazo[4,5-c]quinolin-1-yl]propane-1,2-diol] returned a melting point of 203 to 204 °C.
The compound `CCCCc1nc2c(N)nc3cc(-c4ccc(OC)cc4OC)ccc3c2n1CC(C)C` [Example 3, 2-Butyl-7-(2,4-dimethoxyphenyl)-1-isobutyl-1H-imidazo[4,5-c]quinolin-4-amine] registered a melting point of 187 to 189 °C.
With `CCOCc1nc2c(N)nc3cc(-c4ccncc4)ccc3c2n1CCCOC` [Example 165, 2-Ethoxymethyl-1-(3-methoxypropyl)-7-(pyridin-4-yl)-1H-imidazo[4,5-c]quinolin-4-amine], the melting point is 225 to 226 °C.
`COCCc1nc2c(N)nc3ccc(-c4ccccc4)cc3c2n1CCCN1CCCC1=O` (hydrate or solvate) [Example 187, 1-{3-[4-Amino-2-(2-methoxyethyl)-8-phenyl-1H-imidazo[4,5-c]quinolin-1-yl]propyl}pyrrolidin-2-one] showed a melting point of 207 to 210 °C.
On to `CCOCc1nc2c(N)nc3c(-c4cccnc4)cccc3c2n1CC(C)(C)O` [Example 485, 1-[4-Amino-2-ethoxymethyl-6-(pyridin-3-yl)-1H-imidazo[4,5-c]quinolin-1-yl]-2-methylpropan-2-ol], for which the melting point is 199 to 201 °C.
Compound `CCCc1nc2c(N)nc3cc(-c4cncc(CO)c4)ccc3c2n1CC(C)(C)O` [Example 420, 1-[4-Amino-7-(5-hydroxymethylpyridin-3-yl)-2-propyl-1H-imidazo[4,5-c]quinolin-1-yl]-2-methylpropan-2-ol] displayed a melting point of 225 to 226 °C.
For `CCOCc1nc2c(N)nc3cc(-c4ccccc4)ccc3c2n1CC1CCN(C(=O)OC(C)(C)C)CC1` [Example 191, tert-Butyl 4-[(4-amino-2-ethoxymethyl-7-phenyl-1H-imidazo[4,5-c]quinolin-1-yl)methyl]piperidine-1-carboxylate], the melting point lay within 194 to 195 °C.
For `CCOCc1nc2c(N)nc3cc(-c4ccccc4)ccc3c2n1CC1CCN(S(C)(=O)=O)CC1` [Example 193, 2-Ethoxymethyl-1-{[1-(methanesulfonyl)piperidin-4-yl]methyl}-7-phenyl-1H-imidazo[4,5-c]quinolin-4-amine] the value was 224 to 225 °C; for `CCc1nc2c(N)nc3cc(-c4cccnc4)ccc3c2n1CC1CCN(S(C)(=O)=O)CC1` (hydrate or solvate) [Example 406, 2-Ethyl-1-{[1-(methanesulfonyl)piperidin-4-yl]methyl}-7-(pyridin-3-yl)-1H-imidazo[4,5-c]quinolin-4-amine], 228 to 229 °C; for `CCOCc1nc2c(N)nc3cc(-c4cccnc4)ccc3c2n1CC1CCCCN1S(C)(=O)=O` (stereo not shown) [Example 492, 2-Ethoxymethyl-1-{[1-(methanesulfonyl)piperidin-2-yl]methyl}-7-(pyridin-3-yl)-1H-imidazo[4,5-c]quinolin-4-amine], 152 to 154 °C.
`CCOCc1nc2c(N)nc3cc(-c4cccnc4)ccc3c2n1CC1CCCCC1` [Example 438, 1-Cyclohexylmethyl-2-ethoxymethyl-7-(pyridin-3-yl)-1H-imidazo[4,5-c]quinolin-4-amine] came in with a melting point of 146 to 148 °C.
In turn, `CCCc1nc2c(N)nc3cc(/C=C/c4ccc(OC)cc4)ccc3c2n1CC(C)C` [Example 444, (E)-7-[2-(4-Methoxyphenyl)vinyl]-1-(2-methylpropyl)-2-propyl-1H-imidazo[4,5-c]quinolin-4-amine] showed a melting point of 201 to 202 °C.
Regarding `COCc1nc2c(N)nc3cc(-c4cncc(OC)c4)ccc3c2n1CC(C)(C)O` [Example 400, 1-[4-Amino-2-methoxymethyl-7-(5-methoxypyridin-3-yl)-1H-imidazo[4,5-c]quinolin-1-yl]-2-methylpropan-2-ol], the melting point was 234 to 236 °C.
In turn, `CCOCc1nc2c(N)nc3cc(-c4ccc(N(C)C)cc4)ccc3c2n1CC(C)C` [Example 114, 7-(4-Dimethylaminophenyl)-2-ethoxymethyl-1-(2-methylpropyl)-1H-imidazo[4,5-c]quinolin-4-amine] had a melting point of 214.5 to 215.5 °C.
`CCc1nc2c(N)nc3cc(-c4cccnc4)ccc3c2n1CC1CCN(C(=O)OC(C)(C)C)CC1` [Example 404, tert-Butyl 4-{[4-amino-2-ethyl-7-(pyridin-3-yl)-1H-imidazo[4,5-c]quinolin-1-yl]methyl}piperidine-1-carboxylate] came in with a melting point of 229 to 231 °C.
`CCCc1nc2c(N)nc3cc(-c4cccnc4)ccc3c2n1CC1CCN(C(=O)OC(C)(C)C)CC1` [Example 409, tert-Butyl 4-{[4-amino-2-propyl-7-(pyridin-3-yl)-1H-imidazo[4,5-c]quinolin-1-yl]methyl}piperidine-1-carboxylate] yielded a melting point of 209 to 211 °C.
For `CCOCc1nc2c(N)nc3cc(-c4cccnc4)ccc3c2n1CCN1CCNCC1` [Example 414, 2-Ethoxymethyl-1-(2-piperazin-1-ylethyl)-7-(pyridin-3-yl)-1H-imidazo[4,5-c]quinolin-4-amine], the melting point lay within 208 to 211 °C.
The figure for `CCOCc1nc2c(N)nc3cc(-c4cccc(C(=O)N5CCOCC5)c4)ccc3c2n1CC1CCOCC1` (hydrate or solvate) [Example 477, {3-[4-Amino-2-ethoxymethyl-1-(tetrahydropyran-4-ylmethyl)-1H-imidazo[4,5-c]quinolin-7-yl]phenyl}morpholin-4-ylmethanone] is 125 to 128 °C; for `CCCc1nc2c(N)nc3cc(/C=C/c4cccc(OC)c4)ccc3c2n1CC(C)C` [Example 443, (E)-7-[2-(3-Methoxyphenyl)vinyl]-1-(2-methylpropyl)-2-propyl-1H-imidazo[4,5-c]quinolin-4-amine] it is 181 to 183 °C; for `CCOCc1nc2c(N)nc3cc(-c4cccnc4)ccc3c2n1CCN1CCN(C(=O)C(C)C)CC1` (hydrate or solvate) [Example 416, 1-(4-{2-[4-Amino-2-ethoxymethyl-7-(pyridin-3-yl)-1H-imidazo[4,5-c]quinolin-1-yl]ethyl}piperazin-1-yl)-2-methylpropan-1-one] it is 190 to 192 °C.
In turn, `CC(C)Cn1cnc2c(N)nc3ccc(CCc4ccccc4)cc3c21` [Example 123, 1-(2-Methylpropyl)-8-phenethyl-1H-imidazo[4,5-c]quinolin-4-amine] displayed a melting point of 175 to 178 °C.
On to `CCOCc1nc2c(N)nc3cc(-c4cccnc4)ccc3c2n1CCCOC` [Example 164, 2-Ethoxymethyl-1-(3-methoxypropyl)-7-(pyridin-3-yl)-1H-imidazo[4,5-c]quinolin-4-amine], for which the melting point is 151 to 152 °C.
As for `COCCc1nc2c(N)nc3cc(-c4cccnc4)ccc3c2n1CCCN1CCCC1=O` [Example 183, 1-{3-[4-Amino-2-(2-methoxyethyl)-7-(pyridin-3-yl)-1H-imidazo[4,5-c]quinolin-1-yl]propyl}pyrrolidin-2-one], the melting point was in the range of 218 to 221 °C.
As for `CCCC(=O)NCCCCn1c(CCC)nc2c(N)nc3cc(-c4cccnc4)ccc3c21` (hydrate or solvate) [Example 380, N-{4-[4-Amino-2-propyl-7-(pyridin-3-yl)-1H-imidazo[4,5-c]quinolin-1-yl]butyl}butyramide], the melting point was 144 to 146 °C.
The figure for `CCCOc1cccc(-c2ccc3c(c2)nc(N)c2nc(COCC)n(CC(C)C)c23)c1` [Example 106, 2-Ethoxymethyl-1-(2-methylpropyl)-7-(3-propoxyphenyl)-1H-imidazo[4,5-c]quinolin-4-amine] is 140 to 141 °C; for `CCOCc1nc2c(N)nc3cc(-c4cccnc4)ccc3c2n1CCCCS(N)(=O)=O` [Example 368, 4-[4-Amino-2-ethoxymethyl-7-(pyridin-3-yl)-1H-imidazo[4,5-c]quinolin-1-yl]butane-1-sulfonamide] it is 250 to 251.5 °C.
As to `CCc1nc2c(N)nc3ccc(-c4ccccc4)cc3c2n1CC(C)C` [Example 16, 2-Ethyl-1-isobutyl-8-phenyl-1H-imidazo[4,5-c]quinolin-4-amine], the melting point fell in the range of 233 to 235 °C.
